{"source": "patent US4218474A", "about": "“Derivatives of L- and DL-4-hydroxyphenylglycine” (Pfizer Inc., priority 1977, dated 1980)", "key": {"[1]": {"system": "pyruvate oxidation by diaphragm tissue from fat-fed rats", "assay": "Stimulation of pyruvate oxidation by diaphragm tissue from fat-fed rats in vitro", "assay_type": "cell-based", "details": "Rattus norvegicus, concentration of 0.5 mmoles, L-compounds", "protocol": "Representative compounds of the formula (II) have been tested for their ability to increase the oxidation of glucose and/or pyruvate as follows: Diaphragm tissue is obtained from rats fed on a high fat diet similar to `Diet B` described by Zaragoza and Felber [Horm. Metab. Res., 2, 323 (1970)]. Pyruvate oxidation by such tissue is assessed by measurement of the rate of incorporation of carbon-14 from carbon-14-labelled pyruvate into carbon dioxide in vitro, as described by Bringolf [Eur. J. Biochem., 26, 360 (1972)]. The rate of pyruvate oxidation is depressed by 50%-75% compared with that by diaphragm tissue from rats fed on a normal diet. When the L- and DL-compounds of the formula (II) are added to the medium, they are found to stimulate pyruvate oxidation by diaphragm tissue from fat-fed rats in a dose dependent manner."}, "[2]": {"system": "pyruvate dehydrogenase enzyme", "assay": "Increase in proportion of active form of pyruvate dehydrogenase (PDHa/PDHt) in hearts of fat-fed rats in vivo", "details": "0.6 mg./kg. oral or sub-cutaneous; rat hearts removed after 11/2 hours; L-compounds; placebo ratio 0.12-0.21", "protocol": "The ability of compounds of formula (II) to increase the proportion of the active form of the pyruvate dehydrogenase enzyme has been measured in the following test: Rats fed on a high fat diet as in the previous test, are treated either with placebo or with the compound of formula (II) by subcutaneous or intravenous injection or by oral administration. After 11/2 hours the rat hearts are removed and homogenized under conditions which minimize changes in the proportion of the pyruvate dehydrogenase enzyme […] which is present in the active form, as described by Whitehouse and Randle [Biochem. J., 134, 651 (1973)]. The total amount of the enzyme present (PDHt) and the amount which is present in the active form (PDHa) are assessed by a method similar to that described by Taylor et al. [J. Biol. Chem., 248, 73 (1973)]. The fat-feeding process is found to depress the ratio […] from a normal value of about 0.7 to a value in the range from 0.05 to 0.2. Treatment of fat-fed rats with L- and DL-compounds of formula (II) either parenterally or orally, increases this ratio in a dose-dependent manner. The increase in the […] ratio affected by the L-compounds of formula (II) at a dosage level of 0.6 mg./kg. via the oral or sub-cutaneous route is shown in the following Table: […]"}}, "note": "Counter-ions that a name gives are not always drawn. Square brackets hold non-standard residues; d marks the D form. Peptide text beside a SMILES is read from it. Hpg = N[C@H](C(=O)O)c1ccc(O)cc1"}
{"compound": "C#CCNC(=O)[C@@H](N)c1ccc(O)cc1", "note": "[Example 4, L-N-propargyl-2-amino-2-(4-hydroxyphenyl)acetamide]", "values": [{"measurement": "activation at 500 µM", "setting": "[1]", "value": 82, "unit": "%"}, {"measurement": "PDHa/PDHt ratio, compound", "setting": "[2]", "value": 0.73}]}
{"compound": "CC(C)(C)NC(=O)[C@@H](N)c1ccc(O)cc1", "note": "[Example 3]", "values": [{"measurement": "activation at 500 µM", "setting": "[1]", "value": 15, "unit": "%"}, {"measurement": "PDHa/PDHt ratio, compound", "setting": "[2]", "value": 0.56}]}
{"compound": "N[C@H](C(=O)NCC(=O)O)c1ccc(O)cc1", "note": "[Example 17, N-[(L)-2-(4-hydroxyphenyl)glycyl]-glycine hydrochloride dioxanate] (H-[Hpg]-Gly-OH)", "values": [{"measurement": "activation at 500 µM", "setting": "[1]", "value": 41, "unit": "%"}, {"measurement": "PDHa/PDHt ratio, compound", "setting": "[2]", "value": 0.31}]}
{"compound": "CNC(=O)[C@@H](N)c1ccc(O)cc1.Cl", "note": "[Example 13, (L)-N-methyl-2-Amino-2-(4-hydroxyphenyl)acetamide hydrochloride]", "values": [{"measurement": "activation at 500 µM", "setting": "[1]", "value": 45, "unit": "%"}, {"measurement": "PDHa/PDHt ratio, compound", "setting": "[2]", "value": 0.55}]}
{"compound": "N[C@H](C(=O)NC1CCCC1)c1ccc(O)cc1", "note": "[Example 5, L-N-cyclopentyl-2-amino-2-(4-hydroxyphenyl)acetamide]", "values": [{"measurement": "activation at 500 µM", "setting": "[1]", "value": 23, "unit": "%"}, {"measurement": "PDHa/PDHt ratio, compound", "setting": "[2]", "value": 0.88}]}
{"compound": "COCCNC(=O)[C@@H](N)c1ccc(O)cc1", "note": "[Example 14, L-N-(2-methoxyethyl)-2-amino-2-(4-hydroxyphenyl)acetamide]", "values": [{"measurement": "activation at 500 µM", "setting": "[1]", "value": 76, "unit": "%"}, {"measurement": "PDHa/PDHt ratio, compound", "setting": "[2]", "value": 0.88}]}
{"compound": "CCN(CC)CCNC(=O)[C@@H](N)c1ccc(O)cc1", "note": "[Example 6, L-N-(2-diethylamino)ethyl-2-amino-2-(4-hydroxyphenyl)acetamide]", "values": [{"measurement": "activation at 500 µM", "setting": "[1]", "value": 38, "unit": "%"}, {"measurement": "PDHa/PDHt ratio, compound", "setting": "[2]", "value": 0.78}]}
{"compound": "COc1ccccc1OCC(O)CNC(=O)[C@@H](N)c1ccc(O)cc1", "note": "(stereo partly shown) [Example 15]", "values": [{"measurement": "activation at 500 µM", "setting": "[1]", "value": 55, "unit": "%"}, {"measurement": "PDHa/PDHt ratio, compound", "setting": "[2]", "value": 0.25}]}
{"compound": "Cl.N[C@H](C(=O)NCc1ccc(O)cc1)c1ccc(O)cc1", "note": "[Example 1, (L)-N-(4-Hydroxybenzyl)-2-amino-2-(4-Hydroxyphenyl)acetamide hydrochloride]", "values": [{"measurement": "activation at 500 µM", "setting": "[1]", "value": 72, "unit": "%"}, {"measurement": "PDHa/PDHt ratio, compound", "setting": "[2]", "value": 1.00}]}
{"compound": "CC(C)NC(=O)[C@@H](N)c1ccc(O)cc1", "note": "[Example 2, L-N-isopropyl-2-amino-2-(4-hydroxyphenyl)acetamide]", "values": [{"measurement": "activation at 500 µM", "setting": "[1]", "value": 108, "unit": "%"}, {"measurement": "PDHa/PDHt ratio, compound", "setting": "[2]", "value": 0.65}]}
{"compound": "Cl.N[C@H](C(=O)N[C@@H](Cc1ccc(O)cc1)C(=O)O)c1ccc(O)cc1", "note": "[Example 16, N-[(L)-2-(4-Hydroxyphenyl)glycyl]-(L)-tyrosine hydrochloride] (H-[Hpg]-Tyr-OH)", "values": [{"measurement": "activation at 500 µM", "setting": "[1]", "value": 67, "unit": "%"}, {"measurement": "PDHa/PDHt ratio, compound", "setting": "[2]", "value": 0.31}]}
